Measured values reported in patent US4485110A, “β-Lactam compounds, and use” (priority 1980, dated 1984).
Where “and” joins values, the source holds several entries; their conditions need not be identical. Equal values may be shown once.

What was measured:
Format in all cases: cell-based
S. aureus 1517 = assay: Antibacterial activity, broth MIC; conditions: Staphylococcus aureus, compound alone
Description: (§1) The antibacterial activity of a number of compounds described in the foregoing Examples against a number of organisms is shown in Tables 1 and 10.

S. marcescens US 20 = assay: Antibacterial activity, broth MIC; conditions: Serratia marcescens, US20; compound alone, broth; read-out: Broth MIC
Description: as §1

S. sonnei MB 11967 = assay: Antibacterial activity, broth MIC; conditions: Shigella sonnei, MB11967, compound alone
Description: as §1

S. faecalis I = assay: Antibacterial activity, broth MIC; conditions: Enterococcus faecalis; compound alone, broth; read-out: Broth MIC
Description: as §1

S. aureus Russell [1] = assay: Antibacterial activity, broth MIC; conditions: Staphylococcus aureus, compound alone
Description: as §1

P. rettgeri WM 16 = assay: Antibacterial activity, broth MIC; conditions: Providencia rettgeri, WM16, compound alone
Description: as §1

S. aureus Oxford = assay: Antibacterial activity, broth MIC; conditions: Staphylococcus aureus, compound alone
Description: as §1

S. pneumoniae CN 33 = assay: Antibacterial activity, broth MIC; conditions: Streptococcus pneumoniae, CN33, compound alone
Description: as §1

P. aeruginosa A [2] = assay: Antibacterial activity, broth MIC; conditions: Pseudomonas aeruginosa, compound alone
Description: as §1

E. coli JT 39 R^+ = assay: Antibacterial activity, broth MIC; conditions: Escherichia coli; compound alone, broth; read-out: Broth MIC
Description: as §1

P. vulgaris WO 91 = assay: Antibacterial activity, broth MIC; conditions: Proteus vulgaris, WO91, compound alone
Description: as §1

C. freundii E 8 = assay: Antibacterial activity, broth MIC; conditions: Citrobacter freundii, E8; compound alone, broth; read-out: Broth MIC
Description: as §1

P. mirabilis 977 [3] = assay: Antibacterial activity, broth MIC; conditions: Proteus mirabilis, compound alone
Description: as §1

K. aerogenes A = assay: Antibacterial activity, broth MIC; conditions: Klebsiella aerogenes; compound alone, broth; read-out: Broth MIC
Description: as §1

S. pyogenes CN 10 = assay: Antibacterial activity, broth MIC; conditions: Streptococcus pyogenes, CN10, compound alone
Description: as §1

E. coli 0111 [4] = assay: Antibacterial activity, broth MIC; conditions: Escherichia coli, compound alone
Description: as §1

S. typhimurium CT 10 = assay: Antibacterial activity, broth MIC; conditions: Salmonella enterica, compound alone
Description: as §1

P. morganii I 580 = assay: Antibacterial activity, broth MIC; conditions: Morganella morganii, I580, compound alone
Description: as §1

E. cloacae N 1 = assay: Antibacterial activity, broth MIC; conditions: Enterobacter cloacae, N1, compound alone
Description: as §1

S. aureus Russell [5] = assay: β-Lactamase inhibitory activity: antibiotic MIC alone or in combination
Description: (§2) These tables show the MIC values of amoxycillin, cephaloridine, ticarcillin and apalcillin against a number of β-lactamase producing organisms.

S. aureus MB9 = assay: as above; conditions: compound alone, 5.0 μg/ml
Description: as §2

[6] = tested on: β-lactamase producing organisms; assay: β-Lactamase inhibitory activity: synergistic properties; conditions: addition of the compound, Tables 2-5
Description: as §2

K. aerogenes I112 = assay: β-Lactamase inhibitory activity: antibiotic MIC alone or in combination
Description: as §2

E. coli JT39R+ = assay: as above
Description: as §2

P. aeruginosa A [7] = assay: as above; conditions: Pseudomonas aeruginosa; amoxycillin alone; read-out: Amoxycillin MIC
Description: as §2

P. vulgaris WO91 = assay: as above
Description: as §2

K. aerogenes Ba95R+ = assay: as above; conditions: Klebsiella aerogenes, read-out: Amoxycillin MIC
Description: as §2

C. freundii B10R+ = assay: as above; conditions: Citrobacter freundii, read-out: Amoxycillin MIC
Description: as §2

P. rettgeri WM16 = assay: as above
Description: as §2

P. mirabilis 889 = assay: as above; conditions: Proteus mirabilis, 889, amoxycillin alone; read-out: Amoxycillin MIC
Description: as §2

P. morganii 1580 = assay: as above
Description: as §2

P. mirabilis 977 [8] = assay: as above; conditions: Proteus mirabilis, 977, amoxycillin alone; read-out: Amoxycillin MIC
Description: as §2

C. freundii E8 = assay: as above
Description: as §2

E. coli JT410 C+ = assay: as above; conditions: amoxycillin alone
Description: as §2

P. aeruginosa Dalgleish = assay: as above; conditions: Pseudomonas aeruginosa; amoxycillin alone; read-out: Amoxycillin MIC
Description: as §2

E. coli JT20R+ = assay: as above; conditions: Escherichia coli, read-out: Amoxycillin MIC
Description: as §2

E. coli 0111 [9] = assay: as above
Description: as §2

E. cloacae T 153 = assay: as above; conditions: Enterobacter cloacae, T153; amoxycillin alone
E. cloacae N1 = assay: as above; conditions: Enterobacter cloacae, N1, amoxycillin alone; read-out: Amoxycillin MIC

Work on `C/C=C1/C(=O)N2C(C(=O)O)=C(SCC)SC12` (racemic) [Compound 27, (5RS)-Sodium(Z)-6-Ethylidene-2-ethylthiopenem-3-carboxylate] yielded an MIC (S. aureus 1517) of 16 µg/mL, an MIC (S. marcescens US 20) of 62 µg/mL and an MIC (S. sonnei MB 11967) of 31 µg/mL. For the same compound, the MIC (S. faecalis I) was 250 µg/mL, the MIC (S. aureus Russell [1]) was 4 µg/mL and the MIC (P. rettgeri WM 16) was 62 µg/mL. It also gave an MIC (S. aureus Oxford) of 2 µg/mL, an MIC (S. pneumoniae CN 33) of 2 µg/mL and an MIC (P. aeruginosa A [2]) of over 500 µg/mL. It also gave an MIC (E. coli JT 39 R^+) of 16 µg/mL, an MIC (P. vulgaris WO 91) of 31 µg/mL and an MIC (C. freundii E 8) of 31 µg/mL. It also gave an MIC (P. mirabilis 977 [3]) of 31 µg/mL, an MIC (K. aerogenes A) of 16 µg/mL and an MIC (S. pyogenes CN 10) of 4 µg/mL. It also gave an MIC (E. coli 0111 [4]) of 31 µg/mL, an MIC (S. typhimurium CT 10) of 16 µg/mL and an MIC (P. morganii I 580) of 31 µg/mL. The MIC (E. cloacae N 1) was 31 µg/mL, the “Inhibition by compound alone (footnote)” value (S. aureus Russell [5]; compound alone, 5.0 μg/ml) was “inhibitory” and the “Inhibition by compound alone (footnote)” value (S. aureus MB9) was “inhibitory”. For the same compound, the “Effect on MIC of amoxycillin, cephaloridine, ticarcillin and apalcillin” value [6] was “marked decrease in the MIC”.

`CC1(C)S[C@@H]2[C@H](NC(=O)[C@H](N)c3ccc(O)cc3)C(=O)N2[C@H]1C(=O)O` [Amoxycillin] was tested, and the MIC (K. aerogenes I112; Klebsiella aerogenes, I112, read-out: Amoxycillin MIC, amoxycillin alone) was 500 µg/mL, the “Amoxycillin MIC” value (K. aerogenes I112; amoxycillin alone) was 250 µg/mL and the MIC (S. aureus Russell [5]; Staphylococcus aureus, amoxycillin alone, read-out: Amoxycillin MIC) was 100 µg/mL. For the same compound, the MIC (E. coli JT39R+; Escherichia coli, read-out: Amoxycillin MIC, amoxycillin alone) was over 1000 µg/mL, the “Amoxycillin MIC” value (E. coli JT39R+; amoxycillin alone) was 1000 µg/mL and the MIC (P. aeruginosa A [7]) was over 1000 µg/mL. The MIC (P. vulgaris WO91; Proteus vulgaris, WO91, amoxycillin alone, read-out: Amoxycillin MIC) was over 1000 µg/mL, the “Amoxycillin MIC” value (P. vulgaris WO91; amoxycillin alone) was 1000 µg/mL and the MIC (K. aerogenes Ba95R+) was over 1000 µg/mL. For the same compound, the MIC (C. freundii B10R+) was over 1000 µg/mL, the MIC (P. rettgeri WM16; Providencia rettgeri, WM16, amoxycillin alone, read-out: Amoxycillin MIC) was 1000 µg/mL and the “Amoxycillin MIC” value (P. rettgeri WM16; amoxycillin alone) was 500 µg/mL. For the same compound, the MIC (P. mirabilis 889) was over 1000 µg/mL, the MIC (P. morganii 1580; Morganella morganii, 1580, amoxycillin alone, read-out: Amoxycillin MIC) was 1000 µg/mL and the “Amoxycillin MIC” value (P. morganii 1580; amoxycillin alone) was over 1000 µg/mL. For the same compound, the MIC (P. mirabilis 977 [8]) was 2.5 µg/mL, the MIC (C. freundii E8; Citrobacter freundii, E8, amoxycillin alone, read-out: Amoxycillin MIC) was 250 µg/mL and the “Amoxycillin MIC” value (C. freundii E8; amoxycillin alone) was 500 µg/mL. The MIC (E. coli JT410 C+; Escherichia coli, read-out: Amoxycillin MIC) was 250 µg/mL, the “Amoxycillin MIC” value (E. coli JT410 C+) was 500 µg/mL and the MIC (P. aeruginosa Dalgleish) was over 1000 µg/mL. The MIC (E. coli JT20R+) was over 1000 µg/mL, the MIC (E. coli 0111 [9]; Escherichia coli, 0111, amoxycillin alone, read-out: Amoxycillin MIC) was 10 µg/mL and the “Amoxycillin MIC” value (E. coli 0111 [9]; amoxycillin alone) was 5 µg/mL and 5.0 µg/mL. It also gave an MIC (E. cloacae T 153) of 1000 µg/mL and an MIC (E. cloacae N1) of 500 µg/mL.
